# Several values for one entry are separate records, joined by “and”; a condition that tells them apart may be missing. Equal values may be shown once. Toxic doses and inconclusive results are not listed.
# Tested on: L1210 leukemia ip in BDF1 mice, survival T/C
# Assay: NCI In Vivo Anticancer Drug Screen. Data for tumor model L1210 Leukemia (intraperitoneal) in B6D2F1 (BDF1) mice
# Conditions: endpoint: mean survival time, higher = longer survival
# Summary of the method: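 Read-out is survival time, reported as the treated-group measurement over the vehicle-control measurement.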
# [1] = dose: 50.0 mg/kg/injection, schedule: Q01DX001 (ip), vehicle: saline
# [2] = dose: 100.0 mg/kg/injection, schedule: Q01DX001 (ip), vehicle: saline
# [3] = dose: 200.0 mg/kg/injection, schedule: Q01DX001 (ip), vehicle: saline
# [4] = dose: 400.0 mg/kg/injection, schedule: Q01DX001 (ip), vehicle: saline
# [5] = dose: 100.0 mg/kg/injection, schedule: Q04DX003 (ip), vehicle: Klucel (hydroxypropylcellulose) (HPC)
# [6] = dose: 200.0 mg/kg/injection, schedule: Q04DX003 (ip), vehicle: Klucel (hydroxypropylcellulose) (HPC)
# [7] = dose: 400.0 mg/kg/injection, schedule: Q04DX003 (ip), vehicle: Klucel (hydroxypropylcellulose) (HPC)
# [8] = dose: 100.0 mg/kg/injection, schedule: Q04DX003 (ip), vehicle: saline
# [9] = dose: 200.0 mg/kg/injection, schedule: Q04DX003 (ip), vehicle: saline
# [10] = dose: 400.0 mg/kg/injection, schedule: Q04DX003 (ip), vehicle: saline
smiles,measurement,setting,value
CCOC(=O)NP(=O)(NC(=O)OCC)NC(=O)OCC,T/C,[1],106 % of control
same,T/C,[2],104 % of control
same,T/C,[3],93 % of control
same,T/C,[4],106 % of control
COC(=O)C1=CCC(C2(C)CO2)CC1 (stereo unspecified),T/C,[5],104 % of control
same,T/C,[6],109 % of control
same,T/C,[7],104 % of control
C[SH+]c1ccccc1N=Cc1ccccn1.C[SH+]c1ccccc1N=Cc1ccccn1.[Ni+2].[O-][Cl+3]([O-])([O-])[O-],T/C,"dose: 88.8 mg/kg/injection, schedule: Q01DX001 (ip), vehicle: saline",93 % of control and 96 % of control
same,T/C,[2],105 % of control
same,T/C,"dose: 133.4 mg/kg/injection, schedule: Q01DX001 (ip), vehicle: saline",96 % of control and 105 % of control
same,T/C,"dose: 300.0 mg/kg/injection, schedule: Q01DX001 (ip), vehicle: saline",95 % of control and 102 % of control
O=C(COc1ccc(Cl)c(Cl)c1)NCc1ccc[n+](Cc2ccc(S(=O)(=O)F)cc2)c1,T/C,"dose: 25.0 mg/kg/injection, schedule: Q04DX003 (ip), vehicle: Klucel (hydroxypropylcellulose) (HPC)",106 % of control
same,T/C,"dose: 50.0 mg/kg/injection, schedule: Q04DX003 (ip), vehicle: Klucel (hydroxypropylcellulose) (HPC)",101 % of control
same,T/C,[5],94 % of control and 101 % of control
N=C(N=C(Cc1ccccc1)c1ccccc1)c1ccccc1,T/C,"dose: 100.0 mg/kg/injection, schedule: Q01DX001 (ip), vehicle: Klucel (hydroxypropylcellulose) (HPC)",92 % of control
same,T/C,[5],104 % of control
same,T/C,"dose: 200.0 mg/kg/injection, schedule: Q01DX001 (ip), vehicle: Klucel (hydroxypropylcellulose) (HPC)",92 % of control
same,T/C,[6],96 % of control
same,T/C,"dose: 400.0 mg/kg/injection, schedule: Q01DX001 (ip), vehicle: Klucel (hydroxypropylcellulose) (HPC)",94 % of control
same,T/C,[7],91 % of control
O=C(N/N=C\c1cccc([N+](=O)[O-])c1)N/N=C/c1cccc([N+](=O)[O-])c1,T/C,"dose: 6.25 mg/kg/injection, schedule: Q04DX003 (ip), vehicle: saline with Tween-80",92 % of control
same,T/C,"dose: 12.5 mg/kg/injection, schedule: Q04DX003 (ip), vehicle: saline with Tween-80",97 % of control
same,T/C,"dose: 25.0 mg/kg/injection, schedule: Q04DX003 (ip), vehicle: saline with Tween-80",87 % of control
CCOC(=O)C(C)C(=O)C(=O)N=C(N)N (stereo unspecified),T/C,"dose: 100.0 mg/kg/injection, schedule: Q01DX009 (ip), vehicle: saline",102 % of control
same,T/C,[8],101 % of control and 103 % of control
same,T/C,"dose: 200.0 mg/kg/injection, schedule: Q01DX009 (ip), vehicle: saline",100 % of control
same,T/C,[9],97 % of control
same,T/C,"dose: 400.0 mg/kg/injection, schedule: Q01DX009 (ip), vehicle: saline",100 % of control
same,T/C,[10],103 % of control and 104 % of control
CCN(CCNc1ccc(C)c2sc3ccccc3c(=O)c12)CC(C)(C)O,T/C,"dose: 25.0 mg/kg/injection, schedule: Q01DX009 (ip), vehicle: saline sonified",97 % of control
same,T/C,"dose: 32.0 mg/kg/injection, schedule: Q02DX Z (ip), vehicle: distilled water + alcohol",119 % of control
same,T/C,[1],106 % of control
same,T/C,"dose: 50.0 mg/kg/injection, schedule: Q01DX009 (ip), vehicle: saline sonified",95 % of control
same,T/C,"dose: 60.0 mg/kg/injection, schedule: Q01DX009 (ip), vehicle: saline",120 % of control
same,T/C,[2],112 % of control
same,T/C,"dose: 100.0 mg/kg/injection, schedule: Q01DX009 (ip), vehicle: saline sonified",118 % of control
same,T/C,[3],109 % of control
same,T/C,[9],104 % of control
same,T/C,"dose: 300.0 mg/kg/injection, schedule: Q01DX009 (ip), vehicle: saline",95 % of control
same,T/C,[4],124 % of control
same,T/C,[10],108 % of control
same,T/C,"dose: 600.0 mg/kg/injection, schedule: Q04DX003 (ip), vehicle: saline",189 % of control
Cc1ccc(C)c(Nc2cc(=O)[nH]c(=O)[nH]2)c1,T/C,"dose: 100.0 mg/kg/injection, schedule: Q04DX003 (ip), vehicle: gum acacia",93 % of control
same,T/C,"dose: 200.0 mg/kg/injection, schedule: Q04DX003 (ip), vehicle: gum acacia",91 % of control
same,T/C,"dose: 400.0 mg/kg/injection, schedule: Q04DX003 (ip), vehicle: gum acacia",87 % of control
Cc1cc(C)nc(NN=C2CC(C)(C)N(O)C(C)(C)C2)n1,T/C,"dose: 25.0 mg/kg/injection, schedule: Q04DX003 (ip), vehicle: saline",96 % of control
same,T/C,"dose: 50.0 mg/kg/injection, schedule: Q04DX003 (ip), vehicle: saline",98 % of control
same,T/C,[8],102 % of control
O=[N+]([O-])c1ccc(S(=O)(=O)c2ccccc2)c([N+](=O)[O-])c1,T/C,"dose: 6.0 mg/kg/injection, schedule: Q01DX001 (ip), vehicle: saline",93 % of control
same,T/C,"dose: 12.0 mg/kg/injection, schedule: Q01DX001 (ip), vehicle: saline",100 % of control
same,T/C,"dose: 25.0 mg/kg/injection, schedule: Q01DX001 (ip), vehicle: saline",91 % of control
same,T/C,[1],100 % of control and 105 % of control
same,T/C,[3],95 % of control
COc1ccc(NC(=O)Oc2cccc(C(F)(F)F)c2)c(Cl)c1,T/C,"dose: 100.0 mg/kg/injection, schedule: Q01DX009 (ip), vehicle: saline with Tween-80",96 % of control
same,T/C,"dose: 200.0 mg/kg/injection, schedule: Q01DX009 (ip), vehicle: saline with Tween-80",97 % of control
same,T/C,"dose: 400.0 mg/kg/injection, schedule: Q01DX009 (ip), vehicle: saline with Tween-80",94 % of control
Cc1cc(C)c(NC(=O)N(CCCl)N=O)cc1C,T/C,"dose: 1.0 mg/kg/injection, schedule: Q01DX009 (ip), vehicle: carboxymethylcellulose (CMC)",104 % of control
same,T/C,"dose: 2.0 mg/kg/injection, schedule: Q01DX009 (ip), vehicle: carboxymethylcellulose (CMC)",109 % of control
same,T/C,"dose: 4.0 mg/kg/injection, schedule: Q01DX009 (ip), vehicle: carboxymethylcellulose (CMC)",107 % of control
same,T/C,"dose: 50.0 mg/kg/injection, schedule: Q01DX001 (ip), vehicle: other",97 % of control
same,T/C,"dose: 88.0 mg/kg/injection, schedule: Q01DX009 (ip), vehicle: carboxymethylcellulose (CMC)",155 % of control
same,T/C,"dose: 100.0 mg/kg/injection, schedule: Q01DX001 (ip), vehicle: other",106 % of control
same,T/C,"dose: 133.0 mg/kg/injection, schedule: Q01DX009 (ip), vehicle: carboxymethylcellulose (CMC)",180 % of control
same,T/C,"dose: 200.0 mg/kg/injection, schedule: Q01DX001 (ip), vehicle: other",100 % of control
same,T/C,"dose: 200.0 mg/kg/injection, schedule: Q01DX009 (ip), vehicle: carboxymethylcellulose (CMC)",166 % of control
Cc1ccc(C)c(-n2c(C)nc3ccccc3c2=O)c1,T/C,"dose: 100.0 mg/kg/injection, schedule: Q01DX009 (ip), vehicle: Klucel (hydroxypropylcellulose) (HPC)",86 % of control
same,T/C,"dose: 200.0 mg/kg/injection, schedule: Q01DX009 (ip), vehicle: Klucel (hydroxypropylcellulose) (HPC)",100 % of control
same,T/C,"dose: 400.0 mg/kg/injection, schedule: Q01DX009 (ip), vehicle: Klucel (hydroxypropylcellulose) (HPC)",91 % of control
CCC(C)COC(=O)Nc1cccc(OC(=O)NC)c1 (stereo unspecified),T/C,"dose: 100.0 mg/kg/injection, schedule: Q04DX003 (ip), vehicle: saline with Tween-80",97 % of control
same,T/C,"dose: 200.0 mg/kg/injection, schedule: Q04DX003 (ip), vehicle: saline with Tween-80",102 % of control
same,T/C,"dose: 400.0 mg/kg/injection, schedule: Q04DX003 (ip), vehicle: saline with Tween-80",102 % of control
CC(Cl)CNC(=O)N(CC(C)Cl)N=O (stereo unspecified),T/C,"dose: 8.0 mg/kg/injection, schedule: Q01DX001 (ip), vehicle: carboxymethylcellulose (CMC)",108 % of control
same,T/C,"dose: 16.0 mg/kg/injection, schedule: Q01DX001 (ip), vehicle: carboxymethylcellulose (CMC)",101 % of control
same,T/C,"dose: 31.0 mg/kg/injection, schedule: Q01DX001 (ip), vehicle: carboxymethylcellulose (CMC)",97 % of control
same,T/C,"dose: 62.0 mg/kg/injection, schedule: Q01DX001 (ip), vehicle: carboxymethylcellulose (CMC)",100 % of control
same,T/C,"dose: 125.0 mg/kg/injection, schedule: Q01DX001 (ip), vehicle: carboxymethylcellulose (CMC)",97 % of control
same,T/C,"dose: 250.0 mg/kg/injection, schedule: Q01DX001 (ip), vehicle: carboxymethylcellulose (CMC)",101 % of control
same,T/C,"dose: 375.0 mg/kg/injection, schedule: Q01DX001 (ip), vehicle: carboxymethylcellulose (CMC)",103 % of control
same,T/C,"dose: 500.0 mg/kg/injection, schedule: Q01DX001 (ip), vehicle: carboxymethylcellulose (CMC)",122 % of control
same,T/C,"dose: 750.0 mg/kg/injection, schedule: Q01DX001 (ip), vehicle: carboxymethylcellulose (CMC)",197 % of control
same,T/C,"dose: 1000.0 mg/kg/injection, schedule: Q01DX001 (ip), vehicle: carboxymethylcellulose (CMC)",240 % of control

# From PubChem BioAssay AID248 (DTP/NCI, 2004)
